Experiments:
[1] = system: LRAT−/− mice (LCA mouse model); assay: Retinoids in eyes of gavaged LRAT−/− mice, analyzed by HPLC (Example 1); format: in vivo
Description: […]. HPLC chromatogram showing retinoid elution in treated and control mice eye and liver tissue. FIG. 1A. Eyes from dark adapted LRAT−/− mouse. FIG. 1B. Eyes from dark-adapted LRAT−/− mouse gavaged with 5 mg all-trans-retinyl palmitate 2 days prior. FIG. 1C. Eyes from dark-adapted LRAT−/− mouse gavaged with 5 mg all-trans-retinyl acetate 2 days prior. FIG. 1D. Eyes from dark-adapted LRAT−/− mouse gavaged with 6.5 mg 9-cis-retinyl acetate 3 days prior. FIG. 1E. Liver tissue from dark adapted LRAT−/− mouse. FIG. 1F. Liver tissue from dark-adapted LRAT−/− mouse gavaged with 5 mg all-trans-retinyl palmitate 2 days prior. FIG. 1G. Liver tissue from dark-adapted LRAT−/− mouse gavaged with 5 mg all-trans-retinyl acetate 2 days prior. FIG. 1H. Liver tissue from dark-adapted LRAT−/− mouse gavaged with 6.5 mg 9-cis-retinyl acetate 3 days prior.
9-cis-retinyl ester restores visual pigment in an LCA mouse model. LRAT−/− mice were gavaged with all-trans-retinyl palmitate, all-trans-retinyl acetate or 9-cis-retinyl acetate as indicated in the legend to FIG. 1A-1H. Following treatment, retinoids were extracted from the eye and liver, and analyzed by HPLC. […] 9-cis-retinyl ester restores visual pigment in approximately 5 hr (FIG. 2), while excess of retinoid is removed and metabolized (as illustrated for 9-cis-retinol).

Lrat−/− mice [2] = assay: 9-cis-RAL oxime levels in eyes of Lrat−/− mice after single or multiple oral doses (Example 3); format: in vivo, mouse
Description: Levels of 9-cis-RAL oximes (measured as syn- and anti-9-cis-retinyl aldehyde) in the eyes of Lrat−/− mice after a single dose or multiple doses of 9-cis-retinyl-acetate (9-cis-R-Ac). Doses of 9-cis-R-Ac were administered to Lrat−/− mice by oral gavage in vegetable oil (100% canola oil) in a volume of 500 ill (2.5 mg/ml). The mice weighed about 30-50 g. After 3 days, 9-cis-RAL oximes levels were determined by HPLC. Briefly, all experimental procedures related to extraction, derivatization, and separation of retinoids from dissected mouse eyes were carried out as described previously. See Van Hooser et al., J. Biol. Chem. 277:19173-182 (2002); Van Hooser et al., Proc. Natl. Acad. Sci. USA 97:8623-28 (2000); Maeda et al., J. Neurochem. 85:944-56 (2003). All reactions involving retinoids were carried out under dim red light.
Referring to FIG. 5a, the level of 9-cis-RAL in Lrat−/− in mouse eyes after a varying dose of 9-cis-R-Ac is shown. Peaks were identified by retention time and UV spectra and compared to standards. The spike around 19 min resulted from changes in the solvent composition. Retinoid analysis was performed on an HP1100 HPLC equipped with a diode array detector and HP Chemstation (A.07.01) software, allowing identification of retinoid isomers according to their specific retention time and absorption maxima. […]

Lrat−/− mice [3] = assay: Bioavailability comparison of oral 9-cis-retinaldehyde and 9-cis-retinyl acetate, by chromophore levels in LRAT−/− mice (Example 5); format: in vivo, mouse; conditions: low (10 μmoles) and high (15 μmoles) doses, effect more pronounced at low dose, FIG. 7
Description: A comparison of the bioavailability of orally delivered 9-cis-retinaldehyde and 9-cis-retinyl acetate in an LRAT−/− model. 9-cis-retinaldehyde and 9-cis-retinyl acetate were administered at low (10 μmoles) and high (15 μmoles) doses to LRAT−/− mice. Chromophore levels (as 9-cis-retinal oximes) were determined as described previously. See Van Hooser et at, J. Biol. Chem. 277:19173-182 (2002); Van Hooser et al., Proc. Natl. Acad. Sci. USA 97:8623-28 (2000); Maeda et al., J. Neurochem. 85:944-56 (2003). All reactions involving retinoids were carried out under dim red light.

Lrat−/− mice [4] = assay: Chromophore levels in eyes of Lrat−/− mice after all-trans-retinoid isoforms or 9-cis-retinyl succinate (Example 4); format: in vivo, mouse; conditions: 5 mg by oral gavage in canola oil (40 mg/ml), measured after 3 days; FIG. 6
Description: Levels of chromophore (opsin/retinal complexes) were measured in the eyes of mice after dosing with all-trans-retinoid isoforms or 9-cis-retinyl succinate. All-trans-retinyl-palmitate, all-trans-retinyl acetate, all-trans-retinal (vitamin A aldehyde), all-trans-retinol (vitamin A), all-trans-retinyl succinate and 9-cis-retinyl succinate were administered to Lrat−/− mice by oral gavage. Five milligrams of the retinoid isoforms or 9-cis-retinyl succinate were administered in 100% canola oil at a concentration of 40 mg/ml. After 3 days, chromophore levels (as all-trans-retinal oximes or 9-cis-retinal oximes) were determined as described previously. See Van Hooser et al., J. Biol. Chem. 277:19173-182 (2002); Van Hooser et al, Proc. Natl. Acad. Sci. USA 97:8623-28 (2000); Maeda et al., J. Neurochem. 85:944-56 (2003). All reactions involving retinoids were carried out under dim red light.

Structure (SMILES)	presence of syn-9-cis-retinal oxime in eyes (formation of the chromophore) ([1]; dark-adapted LRAT−/− mouse gavaged with 6.5 mg 3 days prior, FIG. 1D)	time in which visual pigment is restored ([1]; eye 9-cis-retinal oximes time course, FIG. 2)	maximal level of isorhodopsin (as 9-cis-retinal oximes) (Lrat−/− mice [2]; Lrat−/− mouse eyes after 10 gavages, FIG. 5b)	dose at which levels of 9-cis-RAL per eye leveled off (Lrat−/− mice [2]; single varying dose by oral gavage in canola oil, measured after 3 days, FIG. 5a)	restoration of chromophore levels (as 9-cis-retinal oximes), compared with 9-cis-retinaldehyde (Lrat−/− mice [3])	restoration of chromophore levels (as all-trans-retinal oximes or 9-cis-retinal oximes) (Lrat−/− mice [4])
CC(=O)OC/C=C(C)/C=C/C=C(C)\C=C\C1=C(C)CCCC1(C)C [9-cis-retinyl acetate]	restored the presence of syn-9-cis-retinal oxime	approximately 5 hr	comparable to the level of rhodopsin in wildtype (WT) mice	4 to 6 µmol	more efficiently restores chromophore levels than 9-cis-retinaldehyde	
CC1=C(/C=C/C(C)=C\C=C\C(C)=C\COC(=O)CCC(=O)O)C(C)(C)CCC1 [9-cis-retinyl succinate]						restored chromophore levels

— patent US10117845B2, “Retinal derivatives and methods for the use thereof for the treatment of visual disorders” (University of Washington, priority 2004, dated 2018)
